From patent EP3046573B1, “AMYLIN ANALOGUES” (Zealand Pharma A/S, priority 2013, dated 2015)
Where two headings read alike, the source gives them in different places. Numbered stars: 1 amine (or outer) side, 2 acyl side, 3 side chain; on linkers, the order of the positions; unused ones are H or OH. Bridge positions count the residues as written; N and C are the ends. Square brackets hold non-standard residues; d marks the D form. Peptide text beside a SMILES is read from it. * marks the point of attachment. C20 diacid = O=C(O)CCCCCCCCCCCCCCCCCCC(=O)*; Pro(4R-NH2) = N[C@H]1CN[C@H](C(=O)O)C1; γGlu = O=C(O)[C@H](CCC(=O)[*:2])N[*:1]; NMeI = CC[C@H](C)[C@H](NC)C(=O)O; Sar = CNCC(=O)O

Assays:
[1] = Assessment of physical stability: fibril formation detected with Thioflavin T (ThT), lag-time; format: physicochemical; settings: 1 mg/ml peptide, 40 µM ThT, FND = Fibrillation not detected; for Fibrillation lag time (hours) pH 4.0 (Ac): 50 mM acetate buffer pH 4.0, 96 hours at 40°C; for Fibrillation lag time (hours) pH 7.0 (His): 50 mM histidine buffer pH 7.0, 96 hours at 40°C; for Fibrillation lag time (hours) pH 7.0 (Ph): 50 mM phosphate buffer pH 7.0, 96 hours at 40°C
Summary of the method: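 Test peptide at 1 mg/ml with 40 µM ThT in 50 mM phosphate (pH 7.0), 50 mM histidine (pH 7.0) or 50 mM acetate (pH 4.0), in triplicate, 40° C. for 96 h. Fluorescence read every 10 min after 300 s agitation. Lag-time (h) taken as intersection of linear fits to initial stable and growth phases.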

[2] = molecular target: T1, human amylin receptor 3 (hAMYR3) consisting of hCTR2 co-expressed with human Receptor Activity Modifying Protein 3 (hRAMP3) (Homo sapiens, UniProt O60896+P30988); assay: hAMYR3 assay: induction of cAMP (AlphaScreen cAMP Assay kit) in COS7 cells expressing hAMYR3; format: cell-based
T1 construct: expressed in transfected cells
T1 sequence (P30988 25-474): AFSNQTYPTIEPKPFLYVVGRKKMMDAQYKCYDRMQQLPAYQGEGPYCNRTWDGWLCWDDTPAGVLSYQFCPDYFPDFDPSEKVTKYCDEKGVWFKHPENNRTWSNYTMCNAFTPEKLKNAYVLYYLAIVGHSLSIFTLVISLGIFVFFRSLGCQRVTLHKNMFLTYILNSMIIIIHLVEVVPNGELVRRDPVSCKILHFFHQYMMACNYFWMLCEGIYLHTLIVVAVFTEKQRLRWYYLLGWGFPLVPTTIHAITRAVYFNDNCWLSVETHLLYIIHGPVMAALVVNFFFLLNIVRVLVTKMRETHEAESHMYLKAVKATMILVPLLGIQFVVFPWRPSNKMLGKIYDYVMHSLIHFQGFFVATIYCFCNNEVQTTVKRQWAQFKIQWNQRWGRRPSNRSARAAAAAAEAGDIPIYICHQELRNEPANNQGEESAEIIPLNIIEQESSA
T1 sequence (O60896 24-148 partner): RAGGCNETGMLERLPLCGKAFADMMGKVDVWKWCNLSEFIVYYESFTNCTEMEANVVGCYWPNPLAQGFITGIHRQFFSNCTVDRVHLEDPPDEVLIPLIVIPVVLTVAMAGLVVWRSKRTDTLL
Summary of the method: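 Stable COS7 clone co-expressing hCTR2 and hRAMP3, stimulated 15 min at 37° C with increasing peptide in Tyrode buffer pH 7.4 with 100 µM IBMX and 0.1% casein. cAMP measured by AlphaScreen after lysis; EC50 and % efficacy versus pramlintide from 4PL fit.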

[3] = cAMP induction in COS7 cells expressing hAMYR3, average of a minimum of 3 determinations, read-out: hAMY R3 EC50

Compound | Fibrillation lag time (hours) pH 4.0 (Ac) [1] | Fibrillation lag time (hours) pH 7.0 (His) [1] | Fibrillation lag time (hours) pH 7.0 (Ph) [1] | EC50 [2, 3] [nM] | EC50 [2] [nM]
CC[C@H](C)[C@@H](C(=O)N[C@@H](CC(C)C)C(=O)N[C@@H](CO)C(=O)N[C@@H](CO)C(=O)N[C@H](C(=O)N[C@@H](CCC(=O)O)C(=O)N[C@H](C(=O)NCC(=O)N[C@@H](CO)C(=O)N[C@@H](CCC(=O)O)C(=O)N[C@H](C(=O)N1CCC[C@H]1C(N)=O)[C@@H](C)O)C(C)C)[C@@H](C)O)N(C)C(=O)[C@H](C)NC(=O)CN(C)C(=O)[C@H](Cc1ccccc1)NC(=O)[C@H](CO)NC(=O)[C@H](CO)NC(=O)[C@H](CCCNC(=N)N)NC(=O)[C@H](Cc1c[nH]cn1)NC(=O)[C@H](CC(C)C)NC(=O)[C@H](Cc1ccccc1)NC(=O)[C@H](CCC(=O)O)NC(=O)[C@H](C)NC(=O)[C@H](CC(C)C)NC(=O)[C@H](CCCNC(=N)N)NC(=O)[C@H](CCC(N)=O)NC(=O)[C@@H](NC(=O)[C@H](C)NC(=O)[C@@H]1CSSC[C@H](NC(=O)[C@H](CCCNC(=N)N)NC(=O)CC[C@H](NC(=O)CCCCCCCCCCCCCCCCCCC(=O)O)C(=O)O)C(=O)N[C@@H](CC(N)=O)C(=O)N[C@@H]([C@@H](C)O)C(=O)N[C@@H](C)C(=O)N[C@@H]([C@@H](C)O)C(=O)N1)[C@@H](C)O [Compound 82, [19CD]-isoGlu-RC()NTATC()ATQRLAEFLHRSSF-Gly(Me)-A-Ile(Me)-LSSTEVGSETP-NH2] ({C20 diacid-γGlu}-RCNTATCATQRLAEFLHRSSF[Sar]A[NMeI]LSSTEVGSETP-NH2; disulfide 2-7) | FND | FND | FND | 0.12 | –
CC[C@H](C)[C@@H](C(=O)N[C@@H](CC(C)C)C(=O)N[C@@H](CO)C(=O)N[C@@H](CO)C(=O)N[C@H](C(=O)N[C@@H](CCC(=O)O)C(=O)N[C@H](C(=O)NCC(=O)N[C@@H](CO)C(=O)N[C@@H](CCC(=O)O)C(=O)N[C@H](C(=O)N1CCC[C@H]1C(N)=O)[C@@H](C)O)C(C)C)[C@@H](C)O)N(C)C(=O)[C@H](C)NC(=O)CN(C)C(=O)[C@H](Cc1ccccc1)NC(=O)[C@H](CO)NC(=O)[C@H](CO)NC(=O)[C@H](CCCNC(=N)N)NC(=O)[C@H](Cc1c[nH]cn1)NC(=O)[C@H](CC(C)C)NC(=O)[C@H](Cc1ccccc1)NC(=O)[C@H](CCC(=O)O)NC(=O)[C@H](C)NC(=O)[C@H](CC(C)C)NC(=O)[C@H](CCCNC(=N)N)NC(=O)[C@H](CCC(=O)O)NC(=O)[C@@H](NC(=O)[C@H](C)NC(=O)[C@@H]1CSSC[C@H](NC(=O)[C@H](Cc2c[nH]c3ccccc23)NC(=O)CC[C@H](NC(=O)CCCCCCCCCCCCCCCCCCC(=O)O)C(=O)O)C(=O)NCC(=O)N[C@@H]([C@@H](C)O)C(=O)N[C@@H](C)C(=O)N[C@@H]([C@@H](C)O)C(=O)N1)[C@@H](C)O [Compound 161, [19CD]-isoGlu-WC()GTATC()ATERLAEFLHRSSF-Gly(Me)-A-Ile(Me)-LSSTEVGSETP-NH2] ({C20 diacid-γGlu}-WCGTATCATERLAEFLHRSSF[Sar]A[NMeI]LSSTEVGSETP-NH2; disulfide 2-7) | FND | FND | FND | 0.19 | –
CC[C@H](C)[C@@H](C(=O)N[C@@H](CC(C)C)C(=O)N[C@@H](CO)C(=O)N[C@@H](CO)C(=O)N[C@H](C(=O)N[C@@H](CC(N)=O)C(=O)N[C@H](C(=O)NCC(=O)N[C@@H](CO)C(=O)N[C@@H](CC(N)=O)C(=O)N[C@H](C(=O)N1C[C@H](N)C[C@H]1C(N)=O)[C@@H](C)O)C(C)C)[C@@H](C)O)N(C)C(=O)[C@H](C)NC(=O)CN(C)C(=O)[C@H](Cc1ccccc1)NC(=O)[C@H](CC(N)=O)NC(=O)[C@H](CC(N)=O)NC(=O)[C@H](CO)NC(=O)[C@H](CO)NC(=O)[C@H](CCCNC(=N)N)NC(=O)[C@H](Cc1c[nH]cn1)NC(=O)[C@H](CC(C)C)NC(=O)[C@H](Cc1ccccc1)NC(=O)[C@H](CCC(=O)O)NC(=O)[C@H](C)NC(=O)[C@H](CC(C)C)NC(=O)[C@H](CCCNC(=N)N)NC(=O)[C@H](CCC(N)=O)NC(=O)[C@@H](NC(=O)[C@H](C)NC(=O)[C@@H]1CSSC[C@H](NC(=O)[C@H](CCCNC(=N)N)NC(=O)CC[C@H](NC(=O)CCCCCCCCCCCCCCCCCCC(=O)O)C(=O)O)C(=O)N[C@@H](CC(N)=O)C(=O)N[C@@H]([C@@H](C)O)C(=O)N[C@@H](C)C(=O)N[C@@H]([C@@H](C)O)C(=O)N1)[C@@H](C)O [Compound 110, [19CD]-isoGlu-RC()NTATC()ATQRLAEFLHRSSNNF-Gly(Me)-A-Ile(Me)-LSSTNVGSNT-Apr-NH2] ({C20 diacid-γGlu}-RCNTATCATQRLAEFLHRSSNNF[Sar]A[NMeI]LSSTNVGSNT[Pro(4R-NH2)]-NH2; disulfide 2-7) | FND | FND | FND | – | 0.087
CC[C@H](C)[C@@H](C(=O)N[C@@H](CC(C)C)C(=O)N[C@@H](CO)C(=O)N[C@@H](CO)C(=O)N[C@H](C(=O)N[C@@H](CCC(=O)O)C(=O)N[C@H](C(=O)NCC(=O)N[C@@H](CO)C(=O)N[C@@H](CCC(=O)O)C(=O)N[C@H](C(=O)N1CCC[C@H]1C(N)=O)[C@@H](C)O)C(C)C)[C@@H](C)O)N(C)C(=O)[C@H](C)NC(=O)CN(C)C(=O)[C@H](Cc1ccccc1)NC(=O)[C@H](CO)NC(=O)[C@H](CO)NC(=O)[C@H](CCCNC(=N)N)NC(=O)[C@H](Cc1c[nH]cn1)NC(=O)[C@H](CC(C)C)NC(=O)[C@H](Cc1ccccc1)NC(=O)[C@H](CCC(=O)O)NC(=O)[C@H](C)NC(=O)[C@H](CC(C)C)NC(=O)[C@H](CCCNC(=N)N)NC(=O)[C@H](CCC(=O)O)NC(=O)[C@@H](NC(=O)[C@H](C)NC(=O)[C@@H]1CSSC[C@H](NC(=O)[C@H](CCCNC(=N)N)NC(=O)CC[C@H](NC(=O)CCCCCCCCCCCCCCCCCCC(=O)O)C(=O)O)C(=O)NCC(=O)N[C@@H]([C@@H](C)O)C(=O)N[C@@H](C)C(=O)N[C@@H]([C@@H](C)O)C(=O)N1)[C@@H](C)O [Compound 162, [19CD]-isoGlu-RC()GTATC()ATERLAEFLHRSSF-Gly(Me)-A-Ile(Me)-LSSTEVGSETP-NH2] ({C20 diacid-γGlu}-RCGTATCATERLAEFLHRSSF[Sar]A[NMeI]LSSTEVGSETP-NH2; disulfide 2-7) | FND | FND | FND | 0.14 | –
CC[C@H](C)[C@@H](C(=O)N[C@@H](CC(C)C)C(=O)N[C@@H](CO)C(=O)N[C@@H](CO)C(=O)N[C@H](C(=O)N[C@@H](CC(=O)O)C(=O)N[C@H](C(=O)NCC(=O)N[C@@H](CO)C(=O)N[C@@H](CC(=O)O)C(=O)N[C@H](C(=O)N1CCC[C@H]1C(N)=O)[C@@H](C)O)C(C)C)[C@@H](C)O)N(C)C(=O)[C@H](C)NC(=O)CN(C)C(=O)[C@H](Cc1ccccc1)NC(=O)[C@H](CO)NC(=O)[C@H](CO)NC(=O)[C@H](CCCNC(=N)N)NC(=O)[C@H](Cc1c[nH]cn1)NC(=O)[C@H](CC(C)C)NC(=O)[C@H](Cc1ccccc1)NC(=O)[C@H](CCC(=O)O)NC(=O)[C@H](C)NC(=O)[C@H](CC(C)C)NC(=O)[C@H](CCCNC(=N)N)NC(=O)[C@H](CC(=O)O)NC(=O)[C@@H](NC(=O)[C@H](C)NC(=O)[C@@H]1CSSC[C@H](NC(=O)[C@H](CCCNC(=N)N)NC(=O)CC[C@H](NC(=O)CCCCCCCCCCCCCCCCCCC(=O)O)C(=O)O)C(=O)N2CCC[C@H]2C(=O)N[C@@H]([C@@H](C)O)C(=O)N[C@@H](C)C(=O)N[C@@H]([C@@H](C)O)C(=O)N1)[C@@H](C)O [Compound 172, [19CD]-isoGlu-RC()PTATC()ATDRLAEFLHRSSF-Gly(Me)-A-Ile(Me)-LSSTDVGSDTP-NH2] ({C20 diacid-γGlu}-RCPTATCATDRLAEFLHRSSF[Sar]A[NMeI]LSSTDVGSDTP-NH2; disulfide 2-7) | FND | FND | FND | 0.095 | –
